Measured values taken from patent US6087355A, “Cephalosporin antibiotics” (Microcide Pharmaceuticals, Inc., priority 1996, dated 2000).
Structures can show the parent of a compound that is named as a salt.

Tests used:
[1] = system: E. coli ATCC 25992; test: In vitro MIC, agar dilution; format: cell-based; conditions: Escherichia coli, ATCC25992, read-out: minimum inhibitory concentration (MIC)
How it was run: (§1)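 Agar dilution, Mueller-Hinton; drug 128 → ≤0.25 μg/mL two-fold, duplicates. Inoculum ~10^4 cfu/spot (log phase). 35-36 °C, 16-20 h. MIC = lowest conc. with no growth.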

[2] = system: E. faecalis ATCC 29212; test: In vitro MIC, agar dilution; format: cell-based; conditions: Enterococcus faecalis, ATCC29212, read-out: minimum inhibitory concentration (MIC)
How it was run: as §1

[3] = system: E. faecalis VanB(Van^R); test: In vitro MIC, agar dilution; format: cell-based; conditions: Enterococcus faecalis, read-out: minimum inhibitory concentration (MIC)
How it was run: as §1

[4] = system: E. faecium A491(Amp^R); test: In vitro MIC, agar dilution; format: cell-based; conditions: Enterococcus faecium, read-out: minimum inhibitory concentration (MIC)
How it was run: as §1

[5] = system: E. faecium ATCC 35667; test: In vitro MIC, agar dilution; format: cell-based; conditions: Enterococcus faecium, ATCC35667, read-out: minimum inhibitory concentration (MIC)
How it was run: as §1

[6] = system: E. faecium VanA(Van^R); test: In vitro MIC, agar dilution; format: cell-based; conditions: Enterococcus faecium, read-out: minimum inhibitory concentration (MIC)
How it was run: as §1

[7] = system: P. aeruginosa ATCC 27853; test: In vitro MIC, agar dilution; format: cell-based; conditions: Pseudomonas aeruginosa, ATCC27853, read-out: minimum inhibitory concentration (MIC)
How it was run: as §1

[8] = system: S. aureus 76(Meth^R)(lac^+); test: In vitro MIC, agar dilution; format: cell-based; conditions: Staphylococcus aureus, read-out: minimum inhibitory concentration (MIC)
How it was run: as §1

[9] = system: S. aureus ATCC 13709(Meth^S); test: In vitro MIC, agar dilution; format: cell-based; conditions: Staphylococcus aureus, ATCC13709, S. aureus ATCC 13709(Meth^S); read-out: minimum inhibitory concentration (MIC)
How it was run: as §1

[10] = system: S. aureus ATCC 29213; test: In vitro MIC, agar dilution; format: cell-based; conditions: Staphylococcus aureus, ATCC29213, read-out: minimum inhibitory concentration (MIC)
How it was run: as §1

[11] = system: S. aureus ATCC 33593(Meth^R); test: In vitro MIC, agar dilution; format: cell-based; conditions: Staphylococcus aureus, ATCC33593, read-out: minimum inhibitory concentration (MIC)
How it was run: as §1

[12] = system: S. aureus PC1(Meth^S)(lac^+); test: In vitro MIC, agar dilution; format: cell-based; conditions: Staphylococcus aureus, read-out: minimum inhibitory concentration (MIC)
How it was run: as §1

[13] = system: S. aureus Spain #356(Meth^R); test: In vitro MIC, agar dilution; format: cell-based; conditions: Staphylococcus aureus, read-out: minimum inhibitory concentration (MIC)
How it was run: as §1

[14] = system: S. haemolyticus 05(Meth^R); test: In vitro MIC, agar dilution; format: cell-based; conditions: Staphylococcus haemolyticus, read-out: minimum inhibitory concentration (MIC)
How it was run: as §1

[15] = system: S. aureus Col(Meth^R)(lac^-); test: In vitro MIC, agar dilution; format: cell-based; conditions: Staphylococcus aureus, read-out: minimum inhibitory concentration (MIC)
How it was run: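 Two-fold dilutions (128 to ≤0.25 μg/mL, in duplicate) were poured into Mueller-Hinton agar. Log-phase broth cultures were spot-inoculated at about 10^4 cfu per spot and incubated 35-36°C for 16-20 hours; the MIC was the lowest concentration inhibiting growth. Col is a high-level PBP2a producer; Col 8A is its isogenic PBP2a-lacking partner.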

[16] = system: S. aureus strain ATCC 13709 (methicillin-susceptible); test: Murine model for lethal bacteremic peritonitis; format: in vivo, female Swiss-Webster mice; conditions: Staphylococcus aureus, ATCC13709, SC, 72 h; for responders at 1.25 mg/kg: read-out: Survivors (converted); for ED50: two equal doses, IP challenge, read-out: ED50
Description: Groups of 5 female Swiss-Webster mice (Simonsen, Gilroy, Calif.) each are challenged by the intraperitoneal (IP) route with tenfold increments of a bacterial inoculum. This permits calculation of the mean lethal dose (LD50) and the LD100. For preliminary evaluation of a new antibiotic, mice are challenged IP with an LD100 titer of bacteria. In two equal doses administered at the time of bacterial challenge and 2 hours later, groups of 10 mice each are treated subcutaneously with two-fold increments of the test drug and an antibiotic of known efficacy in mice and humans (i.e., positive control). Mice are observed for 72 h. Those alive at 72 h are considered long term survivors. The total drug dose in mg/kg that protects 50% of mice in a group from death is termed the mean protective dose (PD50). PD50 s are similarly determined for several pathogens. The quantitative endpoints for the new drug are then compared with those obtained with reference antibiotics.
Six ten-fold dilutions of inoculum suspended in 0.5 mL of sterilized 7% hog gastric mucin (Sigma) are injected IP in groups of 5 mice each. A control group of 5 mice receive mucin alone. Mice are observed for 72 h. Those alive at 72 h are considered long term survivors. The mean lethal dose (LD50) and 100% lethal dose (LD100) are determined by the probit test.
For antibiotic efficacy studies, mice are challenged IP with bacterial titers that will afford an LD100 for the test strain. In two equal doses administered at the time of bacterial challenge and 2 hours later, groups of 10 mice each are treated by the subcutaneous route (SC) with twofold increments of the test antibiotic; another group is treated similarly with a reference antibiotic of known efficacy in animals and man. Drug doses can range from 0.01 to 512 mg/kg. If the drug is poorly soluble, Tween 20 or propylene glycol will be employed to solubilize the drug. Animals are observed for 72 h. The 50% protective dose (PD50) is calculated in mg/kg by the probit method. The PD50 is the same as the 50% effective dose (ED50) and the 50% curative dose (CD50). Samples of blood from the hearts of all animals that die and from half the mice that survive are cultured on brain-heart infusion agar. Animals that received a protective dosage of the test drug will be alive at 72 h, although they may appear moderately ill to very ill during the observation period. […] Most of these mice will die within 6 to 48 h. Those alive at 72 h will be considered long term survivors.
(Compound numbers correspond to those in MIC tables; data reported for challenge with methicillin-susceptible S. aureus strain ATCC 13709.)

Structure (SMILES)	MIC [1]	MIC [2]	MIC [3]	MIC [4]	MIC [5]	MIC [6]	MIC [7]	MIC [8]	MIC [9]	MIC [10]	MIC [11]	MIC [12]	MIC [13]	MIC [14]	MIC [15]	responders at 0.3125 mg/kg ([16]; read-out: Survivors)	responders at 0.625 mg/kg ([16]; read-out: Survivors)	responders at 1.25 mg/kg [16]	ED50 [16]	responders at 2.5 mg/kg ([16]; read-out: Survivors)	further results
NCCSCc1cnccc1SC1=C(C(=O)O)N2C(=O)[C@@H](NC(=O)/C(=N\O)c3csc(N)n3)[C@H]2SC1 [Cmpd 10, (7R)-7-[(Z)-2-(aminothiazol-4-yl)-2-(hydroxyimino)acetamido]-3-(3-aminoethylthiomethylpyrid-4-ylthio)-3-cephem-4-carboxylate, trifluoroacetic acid salt]	4 µg/mL	0.5 µg/mL	1 µg/mL	> 32 µg/mL	2 µg/mL	4 µg/mL	> 32 µg/mL	2 µg/mL	0.5 µg/mL	0.5 µg/mL	2 µg/mL	0.5 µg/mL	2 µg/mL	4 µg/mL	2 µg/mL	20%	80%	100%	1.29 mg/kg		responders at 0.078 mg/kg ([16]; Dose 0.078 mg/kg, read-out: Survivors): 20%; responders at 0.156 mg/kg ([16]; read-out: Survivors): 20%
N=C(N)NCCSCc1cnccc1SC1=C(C(=O)O)N2C(=O)[C@@H](NC(=O)/C(=N\O)c3csc(N)n3)[C@H]2SC1 [Cmpd 14, (7R)-7-[(Z)-2-(aminothiazol-4-yl)-2-(hydroxyimino)acetamido]-3-(3-guanidinoethylthiomethylpyrid-4-ylthio)-3-cephem-4-carboxylate, trifluoroacetic acid salt]	4 µg/mL	0.25 µg/mL	0.25 µg/mL	> 32 µg/mL	1 µg/mL	2 µg/mL	> 32 µg/mL	4 µg/mL	0.25 µg/mL	0.5 µg/mL	2 µg/mL	0.5 µg/mL	4 µg/mL	4 µg/mL	4 µg/mL	10%	30%	30%	1.13 mg/kg	90%	responders at 5 mg/kg ([16]; read-out: Survivors): 100%
CNCCSCc1cnccc1SC1=C(C(=O)O)N2C(=O)[C@@H](NC(=O)/C(=N\O)c3csc(N)n3)[C@H]2SC1 [Cmpd 15, (7R)-7-[(Z)-2-(aminothiazol-4-yl)-2-(hydroxyimino)acetamido]-3-(3-methylaminoethylthiomethylpyrid-4-ylthio)-3-cephem-4-carboxylate, trifluoroacetic acid salt]	8 µg/mL	2 µg/mL	0.5 µg/mL	> 32 µg/mL	2 µg/mL	4 µg/mL	> 32 µg/mL	4 µg/mL	0.5 µg/mL	1 µg/mL	4 µg/mL	1 µg/mL	4 µg/mL	8 µg/mL	4 µg/mL	20%	0%	20%	4.63 mg/kg	50%	responders at 5 mg/kg ([16]; read-out: Survivors): 50%
NCCSCc1cnccc1SC1=C(C(=O)O)N2C(=O)[C@@H](NC(=O)/C(=N\O)c3nc(N)sc3Cl)[C@H]2SC1 [Cmpd 16, (7R)-7-[(Z)-2-(2-amino-5-chlorothiazol-4-yl)-2-(hydroxyimino)acetamido]-3-(3-aminoethylthiomethylpyrid-4-ylthio)-3-cephem-4-carboxylate, trifluoroacetic acid salt]	8 µg/mL	≤ 0.06 µg/mL	0.13 µg/mL	8 µg/mL	0.5 µg/mL	0.25 µg/mL	> 32 µg/mL	1 µg/mL	0.13 µg/mL	0.25 µg/mL	1 µg/mL	0.25 µg/mL	1 µg/mL	2 µg/mL	0.5 µg/mL	10%	30%	55.6%	1 mg/kg	80%	responders at 0.156 mg/kg ([16]; read-out: Survivors): 20%
NCCSCc1cnccc1SC1=C(C(=O)O)N2C(=O)[C@@H](NC(=O)/C(=N\O)c3ccccc3)[C@H]2SC1.O=C(O)C(F)(F)F [Cmpd 26, (7R)-7-[(Z)-2-phenyl-2-(hydroxyimino)acetamido]-3-(3-aminoethylthiomethylpyrid-4-ylthio)-3-cephem-4-carboxylate, trifluoroacetic acid salt]	> 32 µg/mL	≤ 0.06 µg/mL	0.13 µg/mL	8 µg/mL	0.25 µg/mL	0.5 µg/mL	> 32 µg/mL	1 µg/mL	≤ 0.06 µg/mL	0.13 µg/mL	1 µg/mL	0.13 µg/mL	1 µg/mL	2 µg/mL	0.5 µg/mL	10%	50%	50%	1.06 mg/kg	70%	responders at 5 mg/kg ([16]; read-out: Survivors): 90%
NCC(=O)NCCSCc1cnccc1SC1=C(C(=O)O)N2C(=O)[C@@H](NC(=O)/C(=N\O)c3nc(N)sc3Cl)[C@H]2SC1 [Cmpd 29, (7R)-7-[(Z)-2-(2-amino-5-chlorothiazol-4-yl)-2-(hydroxyimino)acetamido]-3-[3-(glycyl)aminoethylthiomethylpyrid-4-ylthio]-3-cephem-4-carboxylate, trifluoroacetic acid salt]	8 µg/mL	≤ 0.06 µg/mL	≤ 0.06 µg/mL	4 µg/mL	0.25 µg/mL	0.5 µg/mL	> 32 µg/mL	1 µg/mL	0.13 µg/mL	0.25 µg/mL	2 µg/mL	0.25 µg/mL	2 µg/mL	2 µg/mL	1 µg/mL	20%	50%	90%	1.26 mg/kg	90%	responders at 5 mg/kg ([16]; read-out: Survivors): 70%
